According to patent publication US12453709B2, “Compositions and methods for treating autism” (priority 2013, dated 2025):

Key:
[1] = test system: patients qualified under the DSM-5 definition of autism; assay: Example 4: DSM-V score; type: in vivo, human; parameters: DSM-V TOTAL / DSM-V social / DSM-V communication / DSM-V relationships / DSM-V behavior: scale not given here; settings: for DSM V relationships / DSM V communication / DSM V social / DSM V behavior / DSM V TOTAL: PT RS; for DSM V relationships: initial 1; for DSM V communication / DSM V social: initial 5; for DSM V TOTAL: initial 21
Protocol: α-methyl-DL tyrosine (AMPT) was administered to 3 patients. This group of patients was qualified under the DSM-5 definition of autism and treated. The Aberrant Behavior Checklist-Community (ABC-C), Autism Diagnostic Observation Schedule (ADOS), Conners Parent Rating Scale (CPRS), and General Clinical Impressions scale were used to assess the disease. Videos were taken at each visit.

[2] = test system: male patients diagnosed with autism; assay: Study HT 02-121: Autism Diagnostic Observation Schedule (ADOS-2); type: in vivo, human; settings: for ADOS-2 Restricted and Repetitive Behavior Mean Change from Screening / ADOS-2 Restricted and Repetitive Behavior Treatment effect versus placebo / ADOS-2 Restricted and Repetitive Behavior change, median / ADOS-2 Social Affect Mean Change from Screening / ADOS-2 Social Affect Treatment effect versus placebo / ADOS-2 Social Affect change, median / ADOS-2 Total Score Mean Change from Screening / ADOS-2 Total Score Treatment effect versus placebo / ADOS-2 Total Score change from Screening, median: Week 4/LOCF
Protocol: This clinical study was a randomized double-blind, placebo-controlled two-cohort, 4-week dose-escalation study that incorporated two open-label treatment groups to assess the safety and efficacy of L1-79 100 mg and 200 mg TID in male patients between the ages of […] years of age diagnosed with autism. The first cohort of 20 patients was comprised of three groups of patients: The first group of five patients received open-label L1-79 100 mg TID and underwent PK and EKG assessments. The remaining two groups in this cohort consisted of 15 patients randomized on a 2:1 basis to receive L1-79 100 mg TID or placebo. The PK and safety data from the open-label L1-79 100 mg TID group was submitted to FDA for review and acceptance before the second cohort was enrolled. The second cohort was procedurally identical to the first. The second cohort of 20 patients was comprised of the same three groups of patients but a dose of 200 mg TID was used instead of 100 mg TID. The key inclusion criteria were as follows: (1) males between 13 and 21 years of age, (2) DSM-5 compliant diagnosis of autism spectrum disorder, confirmed by the Autistic Diagnosis Interview Review (ADIR), and by an ADOS-2 score consistent with a diagnosis of autism, (3) must have been stable on no more than one concomitant medication and no planned changes in psychosocial interventions during the study.
The primary efficacy endpoint was the determination of the clinical improvement by the investigator as documented by the Clinical Global Impression (CGI) rating scales. Additional efficacy endpoints included: (1) changes from baseline in the Socialization and Communication Domains of the Vineland Adaptive Behavior Scales, Second Edition (VABS II) parent/caregiver rating form, (2) changes from baseline in the ADOS-2 Total Score and subscores, (3) changes in the Social Responsiveness Scale, Second Edition (SRS-2) Total Score and subscales, (4) changes in the ABC-C domains, (5) changes in the Repetitive Behavior Scale-Revised (RBS-R) Total Score and subscales. Given the exploratory design of this study only descriptive statistics were planned.
In the preliminary study, all forms were completed at the study site in the presence of the investigator. In Cohort 1 of the present study, the VABS-II, SRS-2, ABC-C and RBS-R were filled out at home by the patient/patient's families prior to treatment visits and returned at treatment visits in order to expedite the execution of the study.

SMILES: CC(N)(Cc1ccc(O)cc1)C(=O)O (racemic) [L1-79, α-methyl-DL-tyrosine]
- DSM-V social ([1]; PT LR, Day 7, initial 9): 5
- DSM-V communication ([1]; PT LR, Day 7, initial 10): 4
- DSM-V relationships ([1]; PT LR, Day 7, initial 11): 4
- DSM-V behavior ([1]; PT LR, Day 7, initial 12): 12
- DSM-V TOTAL ([1]; PT LR, Day 7, initial 42): 27
- DSM-V social ([1]; PT LR, Day 14, initial 9): 3
- DSM-V communication ([1]; PT LR, Day 14, initial 10): 3
- DSM-V relationships ([1]; PT LR, Day 14, initial 11): 3
- DSM-V behavior ([1]; PT LR, Day 14, initial 12): 12
- DSM-V TOTAL ([1]; PT LR, Day 14, initial 42): 21
- DSM-V social ([1]; PT LR, Day 21, initial 9): 2
- DSM-V communication ([1]; PT LR, Day 21, initial 10): 2
- DSM-V relationships ([1]; PT LR, Day 21, initial 11): 2
- DSM-V behavior ([1]; PT LR, Day 21, initial 12): 12
- DSM-V TOTAL ([1]; PT LR, Day 21, initial 42): 18
- DSM-V social ([1]; PT LR, Day 28, initial 9): 2
- DSM-V communication ([1]; PT LR, Day 28, initial 10): 2
- DSM-V relationships ([1]; PT LR, Day 28, initial 11): 2
- DSM-V behavior ([1]; PT LR, Day 28, initial 12): 12
- DSM-V TOTAL ([1]; PT LR, Day 28, initial 42): 18
- DSM V relationships ([1]; Day 7): 0
- DSM V communication ([1]; Day 7): 4
- DSM V social ([1]; Day 7): 3
- DSM V behavior ([1]; Day 7, initial 10): 8
- DSM V TOTAL ([1]; Day 7): 15
- DSM V relationships ([1]; Day 14): 0
- DSM V communication ([1]; Day 14): 1.5
- DSM V social ([1]; Day 14): 1.5
- DSM V behavior ([1]; Day 14, initial 10): 5
- DSM V TOTAL ([1]; Day 14): 8
- DSM V relationships ([1]; Day 21): 0
- DSM V communication ([1]; Day 21): 1.5
- DSM V social ([1]; Day 21): 1
- DSM V behavior ([1]; Day 21, initial 10): 4
- DSM V TOTAL ([1]; Day 21): 6.5
- DSM V relationships ([1]; Day 28): 0
- DSM V communication ([1]; Day 28): 1.5
- DSM V social ([1]; Day 28): 1
- DSM V behavior ([1]; Day 28, initial 10): 3
- DSM V TOTAL ([1]; Day 28): 5.5
- DSM-V communication ([1]; PT WC, Day 7, initial 3): 0
- DSM-V relationships ([1]; PT WC, Day 7, initial 6): 2
- DSM-V social ([1]; PT WC, Day 7, initial 6): 6
- DSM-V behavior ([1]; PT WC, Day 7, initial 11): 9
- DSM-V TOTAL ([1]; PT WC, Day 7, initial 26): 17
- DSM-V communication ([1]; PT WC, Day 14, initial 3): 0
- DSM-V relationships ([1]; PT WC, Day 14, initial 6): 2
- DSM-V social ([1]; PT WC, Day 14, initial 6): 4
- DSM-V behavior ([1]; PT WC, Day 14, initial 11): 8
- DSM-V TOTAL ([1]; PT WC, Day 14, initial 26): 14
- DSM-V communication ([1]; PT WC, Day 21, initial 3): 0
- DSM-V relationships ([1]; PT WC, Day 21, initial 6): 2
- DSM-V social ([1]; PT WC, Day 21, initial 6): 2
- DSM-V behavior ([1]; PT WC, Day 21, initial 11): 8
- DSM-V TOTAL ([1]; PT WC, Day 21, initial 26): 12
- DSM-V communication ([1]; PT WC, Day 28, initial 3): 0
- DSM-V relationships ([1]; PT WC, Day 28, initial 6): 2
- DSM-V social ([1]; PT WC, Day 28, initial 6): 2
- DSM-V behavior ([1]; PT WC, Day 28, initial 11): 7
- DSM-V TOTAL ([1]; PT WC, Day 28, initial 26): 11
- ADOS-2 Restricted and Repetitive Behavior Mean Change from Screening ([2]; DB 100 mg TID): 0.3
- ADOS-2 Restricted and Repetitive Behavior Treatment effect versus placebo ([2]; DB 100 mg TID): 0.5
- ADOS-2 Restricted and Repetitive Behavior change, median ([2]; DB 100 mg TID): −1, 0, 1
- ADOS-2 Social Affect Mean Change from Screening ([2]; DB 100 mg TID): −0.9
- ADOS-2 Social Affect Treatment effect versus placebo ([2]; DB 100 mg TID): −1.0
- ADOS-2 Social Affect change, median ([2]; DB 100 mg TID): −2, 0, 1
- ADOS-2 Total Score Mean Change from Screening ([2]; DB 100 mg TID): −0.6
- ADOS-2 Total Score Treatment effect versus placebo ([2]; DB 100 mg TID): −0.6
- ADOS-2 Total Score change from Screening, median ([2]; DB 100 mg TID): −1, 0, 0
- ADOS-2 Restricted and Repetitive Behavior Mean Change from Screening ([2]; DB 200 mg TID): −1.0
- ADOS-2 Restricted and Repetitive Behavior Treatment effect versus placebo ([2]; DB 200 mg TID): −0.9
- ADOS-2 Restricted and Repetitive Behavior change, median ([2]; DB 200 mg TID): −2, −1, 0
- ADOS-2 Social Affect Mean Change from Screening ([2]; DB 200 mg TID): 0.0
- ADOS-2 Social Affect Treatment effect versus placebo ([2]; DB 200 mg TID): −0.1
- ADOS-2 Social Affect change, median ([2]; DB 200 mg TID): −1, 1, 1
- ADOS-2 Total Score Mean Change from Screening ([2]; DB 200 mg TID): −1.0
- ADOS-2 Total Score Treatment effect versus placebo ([2]; DB 200 mg TID): −1.0
- ADOS-2 Total Score change from Screening, median ([2]; DB 200 mg TID): −1, −1, 0
- improvement from baseline in ADOS-2 scores ([2]; less than one month of treatment): nearly one point
